In PubChem BioAssay (NCI):
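96-well plates; 48 h exposure; 5 concentrations. Endpoints by linear interpolation between flanking doses. Not reached: highest tested concentration assigned. At the TGI there is no net growth.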

Columns and labels:
Experiment in all cases: NCI-60 cell line screen, 48 h
786-0 renal = test system: 786-0 renal
A498 renal = test system: A498 renal
A549 NSCLC = test system: A549 NSCLC
ACHN renal = test system: ACHN renal
BT-549 breast = test system: BT-549 breast
CAKI-1 renal = test system: CAKI-1 renal
CCRF-CEM leukemia = test system: CCRF-CEM leukemia
COLO 205 colon = test system: COLO 205 colon
DU-145 prostate = test system: DU-145 prostate
EKVX NSCLC = test system: EKVX NSCLC
HCT-116 colon = test system: HCT-116 colon
HCT-15 colon = test system: HCT-15 colon
HL-60(TB) leukemia = test system: HL-60(TB) leukemia
HOP-62 NSCLC = test system: HOP-62 NSCLC
HOP-92 NSCLC = test system: HOP-92 NSCLC
HS 578T breast = test system: HS 578T breast
HT29 colon = test system: HT29 colon
IGROV1 ovarian = test system: IGROV1 ovarian
K-562 leukemia = test system: K-562 leukemia
KM12 colon = test system: KM12 colon
LOX IMVI melanoma = test system: LOX IMVI melanoma
M14 melanoma = test system: M14 melanoma
MALME-3M melanoma = test system: MALME-3M melanoma
MCF7 breast = test system: MCF7 breast
MDA-MB-231 breast = test system: MDA-MB-231 breast
MDA-MB-435 = test system: MDA-MB-435
MDA-N = test system: MDA-N
MOLT-4 leukemia = test system: MOLT-4 leukemia
NCI-H23 lung = test system: NCI-H23 lung
NCI-H460 lung = test system: NCI-H460 lung
NCI-H522 lung = test system: NCI-H522 lung
NCI/ADR-RES ovarian = test system: NCI/ADR-RES ovarian
OVCAR-3 ovarian = test system: OVCAR-3 ovarian
OVCAR-4 ovarian = test system: OVCAR-4 ovarian
OVCAR-5 ovarian = test system: OVCAR-5 ovarian
OVCAR-8 ovarian = test system: OVCAR-8 ovarian
PC-3 prostate = test system: PC-3 prostate
RPMI-8226 leukemia = test system: RPMI-8226 leukemia
RXF 393 renal = test system: RXF 393 renal
SF-268 CNS = test system: SF-268 CNS
SF-295 CNS = test system: SF-295 CNS
SF-539 CNS = test system: SF-539 CNS
SK-MEL-2 melanoma = test system: SK-MEL-2 melanoma
SK-MEL-28 melanoma = test system: SK-MEL-28 melanoma
SK-MEL-5 melanoma = test system: SK-MEL-5 melanoma
SK-OV-3 ovarian = test system: SK-OV-3 ovarian
SN12C renal = test system: SN12C renal
SNB-19 CNS = test system: SNB-19 CNS
SNB-75 CNS = test system: SNB-75 CNS
SR leukemia = test system: SR leukemia
SW-620 colon = test system: SW-620 colon
T-47D breast = test system: T-47D breast
TK-10 renal = test system: TK-10 renal
U251 CNS = test system: U251 CNS
UACC-257 melanoma = test system: UACC-257 melanoma
UACC-62 melanoma = test system: UACC-62 melanoma
UO-31 renal = test system: UO-31 renal

Measured: TGI

NC1(C(=O)O)CCCC1C(=O)O (configuration not stated)
> 100 µM: all assays above
